Results: patent publication US20140256756A1, “PIPERIDINYL-SUBSTITUTED LACTAMS AS GPR119 MODULATORS” (Array BioPharma Inc., priority 2011, published 2014)
Counter-ions that a name gives are not always drawn.

Test system: modified version of the GPR119 receptor (94% identity to human receptor)
Assay: cAMP production assay (LANCE cAMP kit, TR-FRET) in HEK-293 cells
Assay type: cell-based
Settings: for cAMP production in HEK-293 cells: HEK-293 cells stably expressing modified GPR119, test compounds 0.2 nM to 10 μM, one-hour incubation; for Fold over baseline: increase in cAMP relative to basal levels, agonist activity if 1.5-fold or greater
Description: The assay utilized HEK-293 cells that stably express a modified version of the GPR119 receptor (94% identity to human receptor), under the control of a CMV promoter containing a tet-on element for tetracycline-inducible expression. GPR119 agonist-induced cyclic AMP (cAMP) production was measured in this cell line using the LANCE cAMP kit (Perkin Elmer, Waltham, Mass.). To generate a working stock of cells for the assay, cells were treated overnight with 1 μg/mL doxycycline at 37° C. in the presence of 5% CO2 to induce receptor expression. Cells were then harvested by enzymatic dissociation with 0.05% trypsin, resuspended in freezing medium (DMEM growth medium with 10% each of fetal bovine serum and DMSO), aliquoted and frozen at −80° C. On the day of the assay, frozen cells were thawed, washed 1× in PBS and resuspended in Hank's buffered salt solution (HBSS) containing 5 mM HEPES, 0.1% BSA and Alexa Fluor 647-conjugated anti-cAMP antibody (diluted 1:100). The cell suspension was then transferred to a Proxiplate Plus white 384-well assay plate (Perkin-Elmer) at 2000 cells/well. Test compounds at final concentrations ranging from 0.2 nM to 10 μM were added to the assay plate, followed by a one-hour incubation at ambient temperature (volume=10 μL/well). DMSO concentration was held constant at 0.5%. After incubation with test compounds, 10 μL, of a detergent buffer containing a biotinylated cAMP/Europium-conjugated streptavidin complex (Europium-labeled cAMP tracer) were added to each well on the assay plate, followed by a 2-hour incubation at ambient temperature. During this incubation cAMP released from lysed cells competes with the Europium-labeled cAMP tracer for binding to the Alexa Fluor 647-conjugated antibody. […] Cellular cAMP levels were then determined by interpolation of raw signal data using a cAMP standard curve. Compounds were determined to have agonist activity if they stimulated a 1.5-fold or greater increase in cAMP relative to basal levels.

Row | SMILES | cAMP production in HEK-293 cells [nmol] | Fold over baseline
1 | CSc1ccc(OC2CCN(C3CCN(c4nc(C(C)C)ns4)CC3)C2=O)cc1 (stereo not drawn) [Example 32, 1-(1-(3-Isopropyl-1,2,4-thiadiazol-5-yl)piperidin-4-yl)-3-(4-(methylthio)phenoxy)pyrrolidin-2-one] | 17.8 | 2.7
2 | CC(C)c1nsc(N2CCC(N3CCC(Oc4ccc(S(=O)(=O)C(C)C)cc4F)C3=O)CC2)n1 (stereo not drawn) [Example 45, 3-(2-fluoro-4-(isopropylsulfonyl)phenoxy)-1-(1-(3-isopropyl-1,2,4-thiadiazol-5-yl)piperidin-4-yl)pyrrolidin-2-one] | 17.8 | 3.5
3 | CC(C)c1nsc(N2CCC(N3CCCC(Oc4cc(F)c(S(C)(=O)=O)cc4F)C3=O)CC2)n1 (stereo not drawn) [Example 85, 3-(2,5-Difluoro-4-(methylsulfonyl)phenoxy)-1′-(3-isopropyl-1,2,4-thiadiazol-5-yl)-[1,4′-bipiperidin]-2-one] | 16.2 | 3.8
4 | CS(=O)(=O)c1cc(F)c(O[C@H]2CCCN(C3CCN(c4nc(C(F)(F)F)ns4)CC3)C2=O)cc1F [Example 93, (S)-3-(2,5-difluoro-4-(methylsulfonyl)phenoxy)-1′-(3-(trifluoromethyl)-1,2,4-thiadiazol-5-yl)-[1,4′-bipiperidin]-2-one] | 9.0 | 2.9
5 | CC(C)c1nsc(N2CCC(N3CC[C@@H](Nc4ccc(S(C)(=O)=O)cc4F)C3=O)CC2)n1 [Example 2, (R)-3-(2-fluoro-4-(methylsulfonyl)phenylamino)-1-(1-(3-isopropyl-1,2,4-thiadiazol-5-yl)piperidin-4-yl)pyrrolidin-2-one] | 21.9 | 3.1
6 | CC(C)c1nsc(N2CCC(N3CC[C@H](Nc4ncc(S(C)(=O)=O)cn4)C3=O)CC2)n1 [Example 14, (S)-1-(1-(3-isopropyl-1,2,4-thiadiazol-5-yl)piperidin-4-yl)-3-(5-(methylsulfonyl)pyrimidin-2-ylamino)pyrrolidin-2-one] | 17.5 | 2.8
7 | CC(C)(C)c1nsc(N2CCC(N3CC[C@H](Oc4ccc(S(C)(=O)=O)cc4F)C3=O)CC2)n1 [Example 35, (S)-1-(1-(3-tert-butyl-1,2,4-thiadiazol-5-yl)piperidin-4-yl)-3-(2-fluoro-4-(methylsulfonyl)phenoxy)pyrrolidin-2-one] | 26.1 | 3.7
8 | Cc1cc(S(C)(=O)=O)cnc1N[C@H]1CCN(C2CCN(c3nc(C(C)C)ns3)CC2)C1=O [Example 17, (S)-1-(1-(3-isopropyl-1,2,4-thiadiazol-5-yl)piperidin-4-yl)-3-(3-methyl-5-(methylsulfonyl)pyridin-2-ylamino)pyrrolidin-2-one] | 11.2 | 2.1
9 | CC(C)c1nsc(N2CCC(N3CC[C@@H](Oc4ccc(S(C)(=O)=O)cc4F)C3=O)CC2)n1 [Example 51, (R)-3-(2-fluoro-4-(methylsulfonyl)phenoxy)-1-(1-(3-isopropyl-1,2,4-thiadiazol-5-yl)piperidin-4-yl)pyrrolidin-2-one] | 33.3 | 5.9
10 | CC(C)c1nsc(N2CCC(N3CCC(Oc4ccc(S(=O)(=O)C5CC5)cc4F)C3=O)CC2)n1 (stereo not drawn) [Example 46, 3-(4-(Cyclopropylsulfonyl)-2-fluorophenoxy)-1-(1-(3-isopropyl-1,2,4-thiadiazol-5-yl)piperidin-4-yl)pyrrolidin-2-one trifluoroacetate] | 20.7 | 4.7
11 | Cc1cc(S(C)(=O)=O)ccc1NC1CCN(C2CCN(c3nc(C(C)C)ns3)CC2)C1=O (stereo not drawn) [Example 21, 1-(1-(3-isopropyl-1,2,4-thiadiazol-5-yl)piperidin-4-yl)-3-(2-methyl-4-(methyl-sulfonyl)phenylamino) pyrrolidin-2-one] | 13.0 | 3.3
12 | CC(C)c1nsc(N2CCC(N3CC[C@H](Nc4cc(Cl)c(S(C)(=O)=O)cc4F)C3=O)CC2)n1 [Example 9, (S)-3-(5-chloro-2-fluoro-4-(methylsulfonyl)phenylamino)-1-(1-(3-isopropyl-1,2,4-thiadiazol-5-yl)piperidin-4-yl)pyrrolidin-2-one] | 16.0 | 4.0
13 | COC(C)(C)c1nsc(N2CCC(N3CC[C@H](Oc4ccc(S(C)(=O)=O)cc4F)C3=O)CC2)n1 [Example 38, (S)-3-(2-fluoro-4-(methylsulfonyl)phenoxy)-1-(1-(3-(2-methoxypropan-2-yl)-1,2,4-thiadiazol-5-yl)piperidin-4-yl)pyrrolidin-2-one] | 42.1 | 6.6
14 | CC(C)c1nsc(N2CCC(N3CC[C@H](Nc4ccc(S(C)(=O)=O)cc4Cl)C3=O)CC2)n1 [Example 12, (S)-3-(2-chloro-4-(methylsulfonyl)phenylamino)-1-(1-(3-isopropyl-1,2,4-thiadiazol-5-yl)piperidin-4-yl)pyrrolidin-2-one] | 17.5 | 3.9
15 | CC(C)c1nsc(N2CCC(N3CC[C@H](Oc4ccc(S(C)(=O)=O)c(F)c4)C3=O)CC2)n1 [Example 53, (S)-3-(3-fluoro-4-(methylsulfonyl)phenoxy)-1-(1-(3-isopropyl-1,2,4-thiadiazol-5-yl)piperidin-4-yl)pyrrolidin-2-one] | 24.5 | 4.9
16 | CC(C)c1nsc(N2CCC(N3CC[C@H](Nc4ccc(S(C)(=O)=O)cc4C#N)C3=O)CC2)n1 [Example 10, (S)-2-(1-(1-(3-isopropyl-1,2,4-thiadiazol-5-yl)piperidin-4-yl)-2-oxopyrrolidin-3-ylamino)-5-(methylsulfonyl)benzonitrile] | 11.3 | 2.3
17 | CS(=O)(=O)c1cc(F)c(O[C@H]2CCN(C3CCN(c4cnc(C(F)(F)F)o4)CC3)C2=O)cc1F [Example 97, (S)-3-(2,5-difluoro-4-(methylsulfonyl)phenoxy)-1-(1-(2-(trifluoromethyl)oxazol-5-yl)piperidin-4-yl)pyrrolidin-2-one] | 19.0 | 4.1
18 | Cc1cc(O[C@H]2CCN(C3CCN(c4nc(C(C)C)ns4)CC3)C2=O)c(F)cc1S(C)(=O)=O [Example 58, (S)-3-(2-fluoro-5-methyl-4-(methylsulfonyl)phenoxy)-1-(1-(3-isopropyl-1,2,4-thiadiazol-5-yl)piperidin-4-yl)pyrrolidin-2-one] | 48.4 | 4.9
19 | CC(C)c1nsc(N2CCC(N3CCC(Oc4ccc(-n5cnnn5)nc4)C3=O)CC2)n1 (stereo not drawn) [Example 82, 3-(6-(1H-tetrazol-1-yl)pyridin-3-yloxy)-1-(1-(3-isopropyl-1,2,4-thiadiazol-5-yl)piperidin-4-yl)pyrrolidin-2-one] | 12.8 | 2.4
20 | CC(C)c1nsc(N2CCC(N3CCC[C@H](Nc4ccc(S(C)(=O)=O)cc4F)C3=O)CC2)n1 [Example 27, (S)-3-(2-fluoro-4-(methylsulfonyl)phenylamino)-1′-(3-isopropyl-1,2,4-thiadiazol-5-yl)-[1,4′-bipiperidin]-2-one] | 17.5 | 3.0
21 | CC(C)(C)c1nsc(N2CCC(N3CC[C@H](Oc4c(F)cc(S(C)(=O)=O)cc4F)C3=O)CC2)n1 [Example 36, (S)-1-(1-(3-tert-butyl-1,2,4-thiadiazol-5-yl)piperidin-4-yl)-3-(2,6-difluoro-4-(methylsulfonyl)phenoxy) pyrrolidin-2-one] | 23.2 | 4.1
22 | CS(=O)(=O)c1ccc(O[C@H]2CCN(C3CCN(c4nc(Br)ns4)CC3)C2=O)c(F)c1 [Example 69, (S)-1-(1-(3-bromo-1,2,4-thiadiazol-5-yl)piperidin-4-yl)-3-(2-fluoro-4-(methylsulfonyl)phenoxy)pyrrolidin-2-one] | 10.6 | 2.1
23 | CS(=O)(=O)c1cc(F)c(OC2CCN(C3CCN(c4nc(C5CC5)ns4)CC3)C2=O)cc1F.O=C(O)C(F)(F)F (stereo not drawn) [Example 47, 1-(1-(3-Cyclopropyl-1,2,4-thiadiazol-5-yl)piperidin-4-yl)-3-(2,5-difluoro-4-(methylsulfonyl)phenoxy)pyrrolidin-2-one trifluoroacetate] | 9.8 | 2.7
24 | CS(=O)(=O)c1ccc(O[C@H]2CCN(C3CCN(c4nc(Oc5ccccc5)ns4)CC3)C2=O)c(F)c1 [Example 74, (S)-3-(2-fluoro-4-(methylsulfonyl)phenoxy)-1-(1-(3-phenoxy-1,2,4-thiadiazol-5-yl)piperidin-4-yl)pyrrolidin-2-one] | 15.3 | 4.2
